Laboratory results: patent US10220051B2, “Combination of DNA repair inhibition with bendamustine or gemcitabine in the treatment of cancer” (Institute for Cancer Research, priority 2012, dated 2019)
“Also recorded” adds a separate entry of the source.

Experiments:
SK28 cells [1] = assay: SK28 cell viability (MTS assay); assay type: cell-based; settings: SK28, concentration-dependent, quadruplicate
Description: (§1) Tests were conducted in quadruplicate.

SK28 cells [2] = assay: SK28 clonogenic assay; assay type: cell-based; settings: SK28, concentration-dependent, quadruplicate
Description: as §1

[3] = test system: HCT116 colon cancer cells; assay: Killing by juglone combinations, HCT116; assay type: cell-based
Description: [The source words this procedure for another cell line and reports this cell line under the same test.] (§2) Two TDG inhibitors, juglone and closantel, were tested for their ability to kill two PaC cell lines, BxPC3 and Panc1 cells, in MTS assays. Cells were treated for 72 and 96 hours with 10 μM juglone and 20 μM closantel, in combination with increasing concentrations of BDM.

MCF7 breast cancer cells = assay: Killing by juglone combinations, MCF7; assay type: cell-based
BxPC3 cells [4] = assay: MTS assay, TDG inhibitor combinations, BxPC3; assay type: cell-based; settings: 10 μM juglone + increasing BDM, 72 and 96 hours
Description: as §2

SK28 melanoma cells = assay: Killing by juglone combinations, SK28; assay type: cell-based
BxPC3 cells [5] = assay: xCelligence proliferation assay, BxPC3; assay type: cell-based; settings: increasing juglone + 45 μM BDM, 24 hours
Description: To independently verify the MTS and clonogenic assays described in the preceding Examples, an assay was conducted using a xCelligence real-time cell analyzer (ACEA Biosciences, Inc.), using a label-free, non-invasive method to monitor adherent cell behavior, including proliferation, spreading and compound-mediated cytotoxicity. The system is based on detecting impedance differences within an electrical circuit created in microelectrodes at the base of culture wells; these differences are converted into a cell index (CI), a value that is influenced by a variety of factors, such as cell number, cell size and cell adhesion. The effect of the TDG inhibitor juglone, in combination with bendamustine (BDM) and gemcitabine (GCB), was assessed on the growth of various cancer cells. BxPC3 cells were treated with 45 μM BDM, in combination with increasing concentrations of juglone, and proliferation was followed over 24 hours.

[6] = test system: MCF7 breast cancer cell lines; assay: xCelligence proliferation assay, MCF7; assay type: cell-based; settings: juglone + BDM
[7] = test system: TDG wild type mouse embryo fibroblast lines (MEFs); assay: Cell cycle FACS after gemcitabine, wild type MEFs; assay type: cell-based; settings: 50 nM gemcitabine, 48 hours
Description: (§3) DNA content analysis via flow cytometry. Following indicated drug treatments, cells were fixed with 70% ethanol. For analysis, cells were stained with propidium iodide, RNase A and sodium citrate. Cells were incubated at 37° C. for 30 minutes before being analyzed using a Becton Dickinson single laser three-fluorescence FACScan flow analyzer and Cell Quest software (Becton Dickinson). DNA content was acquired from 10,000 events and FlowJo software was used to process the data.
(§4) Isogenic, littermate-derived, thymine DNA glycosylase (TDG) wild type and knock-out mouse embryo fibroblast lines (MEFs) were treated with a sub-lethal dose of 50 nM gemcitabine for 48 hours. At the end of the treatment, cells were collected, stained with propidium iodide and analyzed by flow cytometry.

[8] = test system: BxPC3 pancreatic cancer cells; assay: Clonogenic assay, BxPC3 with or without TDG knockdown; assay type: cell-based; settings: TDG knockdown (C8) versus pLKO-infected BxPC3
Description: Clonogenic assays were conducted on pancreatic cancer (PaC) cell line BxPC3 infected with empty pLKO vector or with the C8 lentivirus that downregulates TDG. Even in the absence of gemcitabine, colony formation by the TDG knockdown cells was reduced nearly 60% (FIG. 13). In FIG. 10, the maximum number of colonies formed by pLKO-infected BxPC3 cells was set as 100%.

[9] = test system: TDG knock-out MEFs transduced with wild type human TDG cDNA; assay: Cell cycle FACS after gemcitabine, knock-out MEFs with wild type hTDG; assay type: cell-based, mouse; settings: knockout MEFs reconstituted with wild type TDG
Description: (§5) The biologic function of TDG includes a non-enzymatic role as transcriptional co-activator, mediated by protein-protein interactions, and an enzymatic role related to its DNA N-glycosylase activity. To determine whether sensitization to gemcitabine was due to inactivation of TDG enzymatic function, TDG knock-out MEFs transduced with wild type or glycosylase-dead human TDG cDNA were evaluated.

[10] = test system: TDG knock-out mouse embryo fibroblast lines (MEFs); assay: Cell cycle FACS after gemcitabine, TDG knock-out MEFs; assay type: cell-based; settings: 50 nM gemcitabine, 48 hours
Description: as §3, §4

[11] = test system: TDG knock-out MEFs transduced with glycosylase-dead human TDG cDNA; assay: Cell cycle FACS after gemcitabine, knock-out MEFs with glycosylase-dead hTDG; assay type: cell-based, mouse; settings: versus knock-out cells transduced with wild type human TDG cDNA
Description: as §5

O=C1C=CC(=O)c2c(O)cccc21 [juglone, 5-hydroxynaphthoquinone]
cell viability (SK28 cells [1]): reduction of SK28 cell viability | cell viability (SK28 cells [1]; listed as Juglone): reduce cell viability | clonogenic capacity / colony-forming ability (SK28 cells [2]): reduction of SK28 cell viability (MTS assay) and colony-forming ability; also recorded: reduction of clonogenic capacity | clonogenic capacity / colony-forming ability (SK28 cells [2]; listed as Juglone): reduce cell viability and clonogenic capacity | killing in combination with bendamustine ([3]; juglone + bendamustine): more effectively killed | killing in combination with gemcitabine ([3]; juglone + gemcitabine): more effectively killed | killing effect in combination with BDM (MCF7 breast cancer cells; juglone + BDM): synergistic effect | killing effect in combination with gemcitabine (MCF7 breast cancer cells; juglone + gemcitabine): synergistic killing | killing effect in combination with BDM (BxPC3 cells [4]): synergistic killing effect | killing in combination with bendamustine (SK28 melanoma cells; juglone + bendamustine): more effectively killed | killing in combination with gemcitabine (SK28 melanoma cells; juglone + gemcitabine): more effectively killed | proliferation (normalized cell index) (BxPC3 cells [5]): suppressed proliferation more than juglone alone | proliferation (normalized cell index) [6]: A similar result was observed

Nc1ccn([C@@H]2O[C@H](CO)[C@@H](O)C2(F)F)c(=O)n1 [gemcitabine, 2′,2′-difluorodeoxycytidine]
cells in S phase [7]: 20.7% | colony formation with increasing gemcitabine [8]: further reduced, and this reduction was greater than pLKO-infected cells expressing TDG | response to gemcitabine (flow cytometry) [9]: responded the same as wild type MEFs | cells in S phase [10]: 52.3% | sensitivity to gemcitabine (flow cytometry) [11]: increased sensitivity
